Results published in ChEMBL document CHEMBL1129562, “Non-peptide cholecystokinin-B/gastrin receptor antagonists based on bicyclic, heteroaromatic skeletons” (J Med Chem, 1996).

Key:
[1] = biological target: T1, Gastrin/cholecystokinin type B receptor (Mus musculus, UniProt P56481); experiment: In vitro inhibitory activity against Cholecystokinin type B receptor using [125I]BH-CCK-8S as radioligand in mouse cortical membranes; format: cell membranes
T1 sequence (P56481 whole entry): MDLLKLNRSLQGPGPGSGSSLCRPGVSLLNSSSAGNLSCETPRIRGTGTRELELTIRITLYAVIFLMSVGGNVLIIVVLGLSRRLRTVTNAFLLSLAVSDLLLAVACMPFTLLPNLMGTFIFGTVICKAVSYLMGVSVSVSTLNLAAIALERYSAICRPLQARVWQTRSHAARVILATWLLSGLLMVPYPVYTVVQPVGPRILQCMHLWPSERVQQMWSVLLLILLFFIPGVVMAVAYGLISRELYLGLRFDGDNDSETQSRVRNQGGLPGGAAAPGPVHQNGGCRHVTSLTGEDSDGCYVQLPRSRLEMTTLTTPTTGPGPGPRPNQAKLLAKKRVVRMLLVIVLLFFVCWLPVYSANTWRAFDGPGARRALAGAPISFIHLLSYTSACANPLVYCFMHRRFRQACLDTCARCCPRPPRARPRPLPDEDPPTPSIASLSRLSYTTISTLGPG

[2] = biological target: T2, Cholecystokinin receptor type A (Cavia porcellus, UniProt Q63931); experiment: In vitro inhibitory activity against Cholecystokinin type A receptor using [125I]BH-CCK-8S as radioligand in guinea pig pancreatic cells
T2 sequence (Q63931 whole entry): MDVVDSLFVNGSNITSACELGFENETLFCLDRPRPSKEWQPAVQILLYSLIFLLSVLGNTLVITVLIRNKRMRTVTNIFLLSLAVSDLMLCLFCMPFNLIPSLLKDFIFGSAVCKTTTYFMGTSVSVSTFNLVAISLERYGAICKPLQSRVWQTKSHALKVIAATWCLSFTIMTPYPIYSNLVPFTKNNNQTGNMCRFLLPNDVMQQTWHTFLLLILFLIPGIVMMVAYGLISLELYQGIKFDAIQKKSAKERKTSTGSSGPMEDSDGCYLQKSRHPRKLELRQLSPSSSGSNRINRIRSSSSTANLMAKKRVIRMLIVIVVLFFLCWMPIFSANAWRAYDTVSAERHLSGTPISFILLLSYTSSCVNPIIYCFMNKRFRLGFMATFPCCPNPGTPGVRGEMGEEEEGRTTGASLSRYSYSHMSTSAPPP

[3] = biological target: T3, Gastrin/cholecystokinin type B receptor (Rattus norvegicus) (UniProt P30553); experiment: Intravenous activity against Cholecystokinin type B receptor in Gosh and Schild rat at a dsoe of 0.025 umol/kg (in vivo); format: functional, organism-based
T3 sequence (whole entry): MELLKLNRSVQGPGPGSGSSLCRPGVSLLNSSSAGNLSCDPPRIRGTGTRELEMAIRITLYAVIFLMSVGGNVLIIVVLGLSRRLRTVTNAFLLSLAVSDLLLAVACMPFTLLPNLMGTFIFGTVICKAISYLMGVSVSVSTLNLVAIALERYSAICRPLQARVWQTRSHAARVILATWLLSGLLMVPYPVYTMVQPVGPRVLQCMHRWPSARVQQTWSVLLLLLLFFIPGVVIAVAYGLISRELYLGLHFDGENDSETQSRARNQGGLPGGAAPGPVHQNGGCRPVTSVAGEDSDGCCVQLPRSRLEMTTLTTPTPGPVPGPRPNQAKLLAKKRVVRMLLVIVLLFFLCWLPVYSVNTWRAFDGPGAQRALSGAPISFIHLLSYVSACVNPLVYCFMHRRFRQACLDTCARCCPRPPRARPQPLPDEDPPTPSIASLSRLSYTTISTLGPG

Canis familiaris = experiment: Intravenous activity against CCKB/Gastrin antagonist in gastric fistula dog at dose 0.1 uM/kg (in vivo); format: functional, Canis lupus familiaris, Stomach

Row | Compound | Ki [1] [nM] | Ki [2] [nM] | inhibition [3] [%] | Inhibition (Canis familiaris) [%]
1 | O=C(NCC1CCCCCC1)c1cc2nc[nH]c2cc1C(=O)N[C@@H](Cc1ccccc1F)C(=O)Nc1cc(-c2nn[nH]n2)cc(-c2nn[nH]n2)c1 | 3.89 | 912 | – | –
2 | O=C(NCC12CC3CC(CC(C3)C1)C2)C1C2c3ccccc3C(c3ccccc32)C1C(=O)N1CCC[C@@H]1C(=O)O (stereo partly drawn) | 891 | 8130 | – | –
3 | O=C(O)c1cc2ccccc2cc1C(=O)NCC12CC3CC(CC(C3)C1)C2 | 2880 | 11700 | – | –
4 | O=C(NCC12CC3CC(CC(C3)C1)C2)c1cc2ccccc2cc1C(=O)N1CCC[C@@H]1C(=O)O | 339 | 3550 | – | –
5 | O=C(O)c1cc(NC(=O)[C@H](Cc2ccccc2F)NC(=O)c2cc3[nH]cnc3cc2C(=O)NCC2CCCCCC2)cc(C(=O)O)c1 | 7.59 | 7410 | – | –
6 | O=C(O)C1C2c3ccccc3C(c3ccccc32)C1C(=O)NCC12CC3CC(CC(C3)C1)C2 (stereo not drawn) | 537 | 8320 | – | –
7 | O=C(O)c1cc(NC(=O)[C@H](Cc2ccccc2)NC(=O)c2cc3ccsc3cc2C(=O)NCC23CC4CC(CC(C4)C2)C3)cc(C(=O)O)c1 | 1.23 | 2240 | – | –
8 | O=C(O)c1cc(NC(=O)[C@H](Cc2ccccc2)NC(=O)c2cc3ccccc3cc2C(=O)NCC23CC4CC(CC(C4)C2)C3)cc(C(=O)O)c1 | 13.2 | 851 | – | –
9 | O=C(O)c1cc(NC(=O)[C@H](Cc2ccccc2)NC(=O)c2cc3cc[nH]c3cc2C(=O)NCC2CCCCCC2)cc(C(=O)O)c1 | 15.1 | 3160 | – | –
10 | O=C(NCC12CC3CC(CC(C3)C1)C2)c1cc2nc[nH]c2cc1C(=O)N[C@@H](Cc1ccccc1)C(=O)Nc1cc(-c2nn[nH]n2)cc(-c2nn[nH]n2)c1 | 4.07 | 891 | – | –
11 | O=C(NCC12CC3CC(CC(C3)C1)C2)c1cc2[nH]ccc2cc1C(=O)N[C@@H](Cc1ccccc1)C(=O)Nc1cc(-c2nn[nH]n2)cc(-c2nn[nH]n2)c1 | 1.2 | 1290 | – | –

More lines, main results first:

Row | Ki [1] [nM] | Ki [2] [nM] | inhibition [3] [%] | Compound | Inhibition (Canis familiaris) [%]
12 | 5.25 | 1480 | 61 | O=C(O)c1cc(NC(=O)[C@H](Cc2ccccc2)NC(=O)c2cc3[nH]cnc3cc2C(=O)NCC23CC4CC(CC(C4)C2)C3)cc(C(=O)O)c1 | –
13 | 5.37 | 3800 | – | O=C(O)c1cc(NC(=O)[C@H](Cc2ccccc2)NC(=O)c2cc3ccoc3cc2C(=O)NCC23CC4CC(CC(C4)C2)C3)cc(C(=O)O)c1 | –
14 | 4.47 | 2570 | – | O=C(O)c1cc(NC(=O)[C@H](Cc2ccccc2F)NC(=O)c2cc3[nH]cnc3cc2C(=O)NCC23CC4CC(CC(C4)C2)C3)cc(C(=O)O)c1 | –
15 | 13.5 | 3390 | – | O=C(O)c1cc(NC(=O)[C@H](Cc2ccccc2)NC(=O)c2cc3[nH]ccc3cc2C(=O)NCC23CC4CC(CC(C4)C2)C3)cc(C(=O)O)c1 | –
16 | 0.741 | 3310 | – | O=C(O)c1cc(NC(=O)[C@H](Cc2ccccc2F)NC(=O)c2cc3cc[nH]c3cc2C(=O)NCC23CC4CC(CC(C4)C2)C3)cc(C(=O)O)c1 | –
17 | – | 2820 | – | O=C(O)c1cc(NC(=O)[C@H](Cc2ccc(O)cc2)NC(=O)c2cc3[nH]cnc3cc2C(=O)NCC23CC4CC(CC(C4)C2)C3)cc(C(=O)O)c1 | –
18 | 1.1 | 3630 | 97 | O=C(O)c1cc(NC(=O)[C@H](Cc2ccccc2)NC(=O)c2cc3cc[nH]c3cc2C(=O)NCC23CC4CC(CC(C4)C2)C3)cc(C(=O)O)c1 | 79
